Paper PMC8584173, “The Cytotoxic Effect of Copper (II) Complexes with Halogenated 1,3-Disubstituted Arylthioureas on Cancer and Bacterial Cells” (International Journal of Molecular Sciences, 2021)

Columns and labels:
[1] = system: Glutathione S-transferase omega-1 (GSTO1_HUMAN); test: LC–MS proteome analysis, GSTO1; assay type: cell-based, Homo sapiens; conditions: IC50 concentration, % of control
Method: (§1) Enzymes involved in oxidoreductive potential were analyzed in the cell lysates obtained after treatment cells with selected conjugates for 24 h. Cells were washed with phosphate-buffered saline (PBS) and harvested, then centrifuged at 1000× g for 10 min. Then, lysis buffer (containing protease inhibitor, 1% RIPA Lysis and Extraction Buffer (ThermoFisher)) and cold PBS were added, and samples were sonicated three times in ice bath. Next, the cell lysates were centrifuged at 14,000× g at 4 °C for 15 min, and then supernatants were stored at […] before use. Protein concentration was measured by the Bradford method.
(§2) Normalized protein concentrations (5 µg) from cell lysate were precipitated by ice cold (–20 °C) acetonitrile (ACN, Merck, in ratio 1:4). Then, samples were centrifuged (–9 °C, 30 min., 18,000× g), the supernatant was discarded and ACN excess was evaporated using a vacuum centrifuge (5 min., room temp.). Protein pellet was dissolved in 40 mM ammonium bicarbonate. An amount of 500 mM dithiothreitol (DTT, with final concentration 20 mM) and 1 M iodoacetamide (IAA, with final concentration 40 mM) were used for reduction and alkylation processes. After 16 h of incubation in 37 °C with Trypsin Gold (Promega), digested protein samples were diluted with 0.1% formic acid (ThermoFisher) and centrifuged (+2 °C, 30 min, 18,000× g).
(§3) LC–MS analysis was carried out with the use of nanoUHPLC (nanoElute, Bruker) coupled by CaptiveSpray (Bruker) to ESI-Q-TOF mass spectrometer (Compact, Bruker). Two-column separation method was used, i.e., pre-column (300 µm × 5 mm, C18 PepMap 100, 5 µm, 100Å, Thermo Scientific) and Aurora separation column with CSI fitting (75 µm × 250 mm, C18 1.6 µm) in gradient 2% B to 35% B in 90 min with the 300 nL/min flow rate. Mobile phases (A) 0.1% formic acid in water and (B) 0.1% formic acid in ACN were used.
(§4) Sample ionizations were performed at a gas flow of 3.0 L/min, temperature of 150 °C and voltage of the capillary at 1600 V. The quadrupole energy was fixed to 5.0 eV and collision chamber energy 7.0 eV, with an ion transfer time of 90 µs. The ions were analyzed in the positive polarity mode in the range 150–2200 m/z, with the acquisition frequency of the 1 Hz spectrum, as well as with the autoMS/MS system.
(§5) The collected spectra were analyzed and calibrated using DataAnalysis software (Bruker) and then identified in ProteinScape (Bruker) by the MASCOT server. Protein identification was conducted using the online SwissProt and NCBIprot databases, and their references and biological significance were identified using Reactome.org, String.org and KEGG.

[2] = system: Glutathione reductase, mitochondrial (GSHR_HUMAN); test: LC–MS proteome analysis, GSHR; assay type: cell-based, Homo sapiens; conditions: IC50 concentration, % of control
Method: as §1, §2, §3, §4, §5

[3] = system: Glutathione S-transferase A1 (GSTA1_HUMAN); test: LC–MS proteome analysis, GSTA1; assay type: cell-based, Homo sapiens; conditions: for Protein Intensity, % (GSTA1): IC50 concentration, % of control
Method: as §1, §2, §3, §4, §5

[4] = system: hospital S. aureus (MRSA); test: MIC, hospital S. aureus; assay type: cell-based, Staphylococcus aureus; conditions: all evaluated hospital S. aureus
Method: The antimicrobial activity of the compounds was tested on Gram-positive bacteria (Staphylococcus aureus NCTC 4163, Staphylococcus aureus ATCC 25923, Staphylococcus aureus ATCC 6538, Staphylococcus aureus ATCC 29213, Staphylococcus epidermidis ATCC 12228, Staphylococcus epidermidis ATCC 35984), Gram-negative rods (Escherichia coli ATCC 10538, Escherichia coli ATCC 25922, Pseudomonas aeruginosa ATCC 15442, Pseudomonas aeruginosa ATCC 27863) and yeasts (Candida albicans ATCC 10231, Candida albicans ATCC 90028, Candida parapsilosis ATCC 22019). Hospital methicillin-resistant strains of Staphylococcus aureus and Staphylococcus epidermidis were obtained from the collection of the Department of Pharmaceutical Microbiology, Medical University of Warsaw, Poland.
Antifungal activities were assessed using Mueller–Hinton agar + 2% glucose and 0.5 µg/mL methylene blue dye medium. Sterile filter paper discs (9 mm diameter, Whatman Number 3 chromatography paper) were dripped with tested compound solutions (in dimethylsulfoxide, DMSO) to load 400 μg of a given compound per disc. Dry discs were placed on the surface of appropriate agar medium. The results (diameter of the growth inhibition zone) were read after 18 h of incubation at 35 °C. Minimal inhibitory concentration (MIC) was tested by the twofold serial microdilution method (in 96-well microtiter plates) using Mueller–Hinton broth medium (Beckton Dickinson) for bacteria or RPMI-1640 medium for Candida species, according to CLSI guidelines. The stock solution of tested agent was prepared in DMSO and diluted in sterile water. […] The final inoculum of all studied microorganisms was 10^5 CFU/ mL^−1 (colony forming units per ml). Minimal inhibitory concentrations (the lowest concentration of a tested agent that prevents visible growth of a microorganism) were read after 18 h (bacteria) or 24 h (yeasts) of incubation at 35 °C.

[5] = system: detoxifying and ROS-scavenging enzymes (GST, GR, SOD, PRDX); test: LC–MS proteome analysis, all 12 tested enzymes (text summaries); assay type: cell-based, human; conditions: PC3, IC50 concentration, span over enzymes
Method: as §1, §2
LC–MS analysis was carried out with the use of nanoUHPLC (nanoElute, Bruker) coupled by CaptiveSpray (Bruker) to ESI-Q-TOF mass spectrometer (Compact, Bruker). […]
as §4
The collected spectra were analyzed and calibrated using DataAnalysis software (Bruker) and then identified in ProteinScape (Bruker) by the MASCOT server. […]

[6] = system: Peroxiredoxin-5, mitochondrial (PRDX5_HUMAN); test: LC–MS proteome analysis, PRDX5; assay type: cell-based, Homo sapiens; conditions: IC50 concentration, % of control
Method: as §1, §2, §3, §4, §5

PC3 cells = test: Annexin V-FITC/PI flow cytometry, PC3; assay type: cell-based, human; conditions: PC3, IC50 dose, 72 h
Method: The cells were cultured and harvested under the conditions described in the cell culture section. […] The effect of these compounds on the process of early and late apoptosis and necrosis was determined, as described previously, by dual staining with annexin V-FITC and propidium iodide according to manufacturer’s protocol (Becton Dickinson). The cells that were annexin V-FITC positive and PI-negative were identified as early apoptotic and annexin V-FITC and PI-positive as late apoptotic or necrotic.

[7] = system: Glutathione S-transferase P (GSTP1_HUMAN); test: LC–MS proteome analysis, GSTP1; assay type: cell-based, Homo sapiens; conditions: IC50 concentration, % of control
Method: as §1, §2, §3, §4, §5

[8] = system: Peroxiredoxin-6 (PRDX6_HUMAN); test: LC–MS proteome analysis, PRDX6; assay type: cell-based, Homo sapiens; conditions: IC50 concentration, % of control
Method: as §1, §2, §3, §4, §5

[9] = system: Thioredoxin-dependent peroxide reductase, mitochondrial (PRDX3_HUMAN); test: LC–MS proteome analysis, PRDX3; assay type: cell-based, Homo sapiens; conditions: IC50 concentration, % of control
Method: as §1, §2, §3, §4, §5

O=[N+]([O-])c1cc([N+]2=C(Nc3ccc(Br)cc3)[S][Cu-2]23[S]C(Nc2ccc(Br)cc2)=[N+]3c2ccc(Cl)c([N+](=O)[O-])c2)ccc1Cl [Compound 3, Copper (II) complex with 1-(4-bromophenyl)-3-(4-chloro-3-nitrophenyl)thiourea]
Protein Intensity, % (GSTO1) ([1]; PC3, 24 h): 64.0% | Protein Intensity, % (GSTO1) ([1]; SW480, 24 h): 66.0% | Protein Intensity, % (GSTO1) ([1]; SW620, 24 h): 77.0% | Protein Intensity, % (GSHR) ([2]; PC3, 24 h): 58.9% | Protein Intensity, % (GSHR) ([2]; SW480, 24 h): 63.1% | Protein Intensity, % (GSHR) ([2]; SW620, 24 h): 79.2% | Protein Intensity, % (GSTA1) ([3]; PC3, 24 h): 70.6% | Protein Intensity, % (GSTA1) ([3]; SW480, 24 h): 86.6% | Protein Intensity, % (GSTA1) ([3]; SW620, 24 h): 45.2% | decrease in the amount of GSTA1 ([3]; SW620, IC50 concentration): 54.8% | MIC [4]: 4 µg/mL | reduction of intensity of the 12 tested enzymes [5]: 29.4–69.1% | Protein Intensity, % (PRDX5) ([6]; PC3, 24 h): 40.9% | Protein Intensity, % (PRDX5) ([6]; SW480, 24 h): 84.8% | Protein Intensity, % (PRDX5) ([6]; SW620, 24 h): 82.4% | early apoptosis, % of cells (PC3 cells): 45.5% ± 3.5% | Protein Intensity, % (GSTP1) ([7]; PC3, 24 h): 51.1% | Protein Intensity, % (GSTP1) ([7]; SW480, 24 h): 75.9% | Protein Intensity, % (GSTP1) ([7]; SW620, 24 h): 64.5% | Protein Intensity, % (PRDX6) ([8]; PC3, 24 h): 71.1% | Protein Intensity, % (PRDX6) ([8]; SW480, 24 h): 81.3% | Protein Intensity, % (PRDX6) ([8]; SW620, 24 h): 66.4% | Protein Intensity, % (PRDX3) ([9]; PC3, 24 h): 57.3% | Protein Intensity, % (PRDX3) ([9]; SW480, 24 h): 85.4% | Protein Intensity, % (PRDX3) ([9]; SW620, 24 h): 67.5%
